Reference: paper PMC10722540, “Red Wine Inspired Chemistry: Hemisynthesis of Procyanidin Analogs and Determination of Their Protein Precipitation Capacity, Octanol–Water Partition, and Stability in Phosphate-Buffered Saline” (Journal of Agricultural and Food Chemistry, 2023)
Read-outs that look alike come from different tables or passages of the source.

Assays:
[1] = Octanol–water partition, shake-flask method; format: physicochemical; conditions: 200 μM, n-octanol/water, 2 h mixing, SE in parentheses; for logP at 2 h: read-out: log P (log10KOW)
Experimental: The shake-flask method was done using 2 mL Eppendorf tubes and three replicates. […] After mixing, aliquots of 500 μL were transferred to new Eppendorf tubes, and 500 μL of n-octanol was added that had been saturated with water. The solvent systems were mixed in a vortex mixer for 2 h, and then both the water and the n-octanol layers as well as the initial water solution were analyzed by UPLC–DAD using the shorter phenyl column (section 2.4). The chromatograms were integrated using TargetLynx software (version 4.2), and the octanol–water partition coefficient, log P, was calculated as the log10 of the ratio of area in n-octanol phase to the area in water phase. Recovery % was calculated by summing the areas in both phases and dividing the summation with the area measured from the initial water phase.

[2] = molecular target: T1, bovine serum albumin (BSA) (Bos taurus, UniProt P02769); test: Protein precipitation capacity (PPC), turbidimetric well-plate reader assay with BSA, log-normal dose–response model; format: biochemical; conditions: SE in parentheses; for ED90 (mM) / EC50: BSA 0.1 mM; for EC50: concentration giving 50% of maximal absorbance (420 nm haze), read-out: ED50 (the source's name); for slope: slope parameter of log-normal dose–response model
T1 construct: purchased Sigma-Aldrich (MO, USA)
T1 sequence (P02769 25-607): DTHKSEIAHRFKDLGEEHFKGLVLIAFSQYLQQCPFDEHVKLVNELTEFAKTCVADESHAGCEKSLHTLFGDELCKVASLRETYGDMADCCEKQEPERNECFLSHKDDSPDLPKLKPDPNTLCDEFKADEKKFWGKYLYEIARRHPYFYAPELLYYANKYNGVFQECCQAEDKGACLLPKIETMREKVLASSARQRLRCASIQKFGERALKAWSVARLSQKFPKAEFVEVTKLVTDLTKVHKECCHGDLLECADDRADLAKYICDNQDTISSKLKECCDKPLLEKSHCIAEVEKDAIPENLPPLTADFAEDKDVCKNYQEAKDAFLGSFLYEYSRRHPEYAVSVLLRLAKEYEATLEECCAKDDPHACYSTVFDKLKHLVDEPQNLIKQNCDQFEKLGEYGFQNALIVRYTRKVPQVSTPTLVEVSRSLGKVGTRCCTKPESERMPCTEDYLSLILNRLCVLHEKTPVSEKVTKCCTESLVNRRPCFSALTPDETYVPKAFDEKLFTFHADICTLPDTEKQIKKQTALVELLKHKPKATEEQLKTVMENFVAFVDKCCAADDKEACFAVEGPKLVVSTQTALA
Experimental: (§1) PPC was measured by using the turbidimetric well-plate reader assay of Engström et al. (2019), with few modifications to the volumes of the reactants and to the number of replicates, for instance. The analyzes of the supernatants were done following Engström et al. (2022).[21] Briefly, 75 μL of BSA solution and 75 μL of the solutions of compounds 2–14 were pipetted to well plates, and the intensity of the forming haze was measured periodically at 420 nm using a well-plate reader. The PPC of the PC analogue 1 was not measured because it was not soluble in suitable solvents. The reactions were monitored for 30 min, and the highest intensities were recorded. A single background measurement was done at each concentration with all the components in the wells but the BSA. The reactions were done in triplicates (and in duplicates with PC C1), and the concentrations of the compounds 2–14 in the reaction mixtures were 0.25 0.65, 1.05, 1.45, 1.85, and 2.25 mM. The concentration of the BSA was kept constant at 0.1 mM. Therefore, the tested molar ratios to BSA were 2.5:1, 6.5:1, 10.5:1, 14.5:1, 18.5:1, and 22.5:1. After the 30 min, the supernatants and precipitates of the replicates were combined in a 1.5 mL Eppendorf tube and separated by centrifuging. The supernatants were then analyzed by UPLC–DAD using the shorter phenyl column (section 2.4) to quantify the leftover compounds 2–14 and BSA. Leftover BSA was quantified using a separately prepared linear calibration curve (1–125 μM), and the compounds 2–14 were quantified by analyzing the background solutions from the well-plate reader assay and constructing a calibration curve from these analyzes. BSA was quantified at 280 nm and compounds 2–14 at 280–320 nm. The wavelength of maximal UV absorption for compounds 2–14 could not be utilized in quantification because the diode array detector was saturated at the optimal wavelengths due to the high concentrations used in the well-plate reader assay. Therefore, off-optimal wavelengths were chosen for quantification separately for each compound 2–14 to reduce intensities and to obtain linear fits for calibration curves.
All statistical analyzed were performed with R (version 4.2.2) in the integrated development environment Rstudio (version 2022.12.0.353).[23],[24] The PPC data was fitted with a dose–response model using the package drc.[25] Various models, e.g., logit and log-normal models, were compared using the mselect function, and the best fitting model was chosen based on the Akaike’s information criterion and residual error when comparing all models, and log-likelihood was used when comparing nested models. All compounds were assumed to have the same upper and lower asymptotes; the former was estimated from the experimental data, and the latter was fixed at zero.

[3] = Stability in phosphate buffered saline; format: physicochemical; conditions: for half-life (t1/2) / half-life at 150 μM: 150 μM, first-order kinetics, UV 280 nm; for half-life at 150 μM: phosphate buffered saline, read-out: half-life (t1/2); for starting material remaining (in words): after 26 h incubation in PBS; for stability in phosphate buffered saline (in words): first time point, approx. 15 min after adding PBS
Experimental: The stabilities of the compounds were measured in PBS, which was prepared from commercially available tablets that were dissolved in ultrapure water. The phosphate concentration was 0.01 M, the pH was 7.4, and the potassium and sodium chloride concentrations were 0.0027 and 0.137 M, respectively. […] The compounds were dissolved in 2 mL of the PBS solution in Eppendorf tubes, vortexed for approximately 15 min, and filtered through a 0.2 μm PTFE filter to a 2 mL UPLC vial. The solutions were analyzed with the UPLC-DAD-HESI-Orbitrap-MS instrument using the longer phenyl column (section 2.4), and repeated injections were done every 47.5 min for approximately 12 h. […] The UV chromatograms at 280 nm were integrated using the QuanBrowser module in Xcalibur software (version 4.1.31.9), and the main degradation products were identified in QualBrowser by their high-resolution mass spectra and UV spectra. With each compound, the measured areas were transformed to proportional areas by dividing all areas with the initial area in the first injection of the time series, and the data was further loge transformed and fitted with first-order linear regression curves. The regression curves were supplemented with 95% confidence intervals to visualize the uncertainty in the fitted curves. The half-lives were calculated from the slope (k) parameters of the linear regression model using the following equation: [drawing 1]

[4] = molecular target: T1, bovine serum albumin (BSA); test: UPLC–DAD analysis of supernatants from the PPC experiment (proportion of precipitated BSA); format: biochemical
Experimental: as §1

[5] = Octanol–water partition, shake-flask method; format: physicochemical; conditions: for logP / KOW: tentative values, experiment shorter than two hours because the compounds degraded; for logP: read-out: log P (log10KOW)
[6] = pH 7.4, PBS pH 7.4, 0.01 M phosphate

| Compound | KOW [1] | logP at 2 h [1] | ED90 (mM) [2] | EC50 [2] [µM] | slope [2] | half-life (t1/2) ([3]; PBS pH 7.4, 0.01 M phosphate) [h] | half-life at 150 μM [3, 6] [h] | activity based on the proportions of precipitated BSA (in words) [4] | starting material remaining (in words) [3] | half-life at 150 μM ([3]; PBS pH 7.4, 0.01 M phosphate) [h] | log P (log10KOW) ([5]; 200 μM, n-octanol/water, 2 h mixing, SE in parentheses) | proportion of BSA precipitated ([4]; highest tested concentration of 2.25 mM (molar ratio to BSA 23:1)) | stability in phosphate buffered saline (in words) [3] | logP ([5]; n-octanol/water) | KOW [5] |
| --- | --- | --- | --- | --- | --- | --- | --- | --- | --- | --- | --- | --- | --- | --- | --- |
| Oc1ccc(C(c2c(O)cc(O)c3c2O[C@H](c2ccc(O)c(O)c2)[C@@H](O)C3)c2c(O)cc(O)c3c2O[C@H](c2ccc(O)c(O)c2)[C@@H](O)C3)cc1O [Compound 7, Catechin–catecholmethine–catechin] | 0.79 (0.00) | -0.1 | 2.53 (0.07) mM | 1290 | 1.90 (0.06) | 0.917 to 1.4 | 0.917 |  |  |  |  |  |  |  |  |
| Oc1cc(O)c2c(c1)O[C@H](c1ccc(O)c(O)c1)[C@H](O)[C@H]2c1c(O)cc(O)c2c1O[C@H](c1ccc(O)c(O)c1)[C@H](O)C2 [Compound 12, PC B2, reference compound] | 0.13 (0.00) | -0.87 |  |  |  |  | 11.6 | practically inactive |  |  |  |  |  |  |  |
| Oc1cc(O)c2c(c1)O[C@H](c1ccc(O)c(O)c1)[C@@H](O)C2 [Compound 15, catechin, reference compound] | 2.61 (0.03) |  |  |  |  |  |  |  | majority of the starting materials remained | 22.3 | 0.42 (0.00) |  |  |  |  |
| Oc1ccc([C@H]2Oc3c(c(O)cc(O)c3C(c3ccco3)c3c(O)cc(O)c4c3O[C@H](c3ccc(O)c(O)c3)[C@@H](O)C4)C[C@@H]2O)cc1O [Compound 5, Catechin–furanmethine–catechin] | 5.28 (0.02) | 0.72 | 2.58 (0.06) mM | 1390 | 2.08 (0.07) |  | 8.85 |  |  |  |  |  |  |  |  |
| Oc1cc(O)c2c(c1)O[C@H](c1ccc(O)c(O)c1)[C@@H](O)[C@@H]2c1c(O)cc(O)c2c1O[C@H](c1ccc(O)c(O)c1)[C@@H](O)C2 [Compound 11, PC B3, reference compound] | 0.16 (0.00) | -0.79 |  |  |  |  | 8.98 | practically inactive |  |  |  |  |  |  |  |
| Oc1cc(O)c2c(c1)O[C@H](c1ccc(O)c(O)c1)[C@H](O)[C@H]2c1c(O)cc(O)c2c1O[C@H](c1ccc(O)c(O)c1)[C@H](O)[C@H]2c1c(O)cc(O)c2c1O[C@H](c1ccc(O)c(O)c1)[C@H](O)C2 [Compound 13, PC C1, reference compound] | 0.07 (0.00) | -1.17 | 1.57 (0.06) mM | 770 | 1.79 (0.08) |  | 30.9 |  |  |  |  | almost all |  |  |  |
| Oc1ccc([C@H]2Oc3c(Cc4c(O)cc(O)c5c4O[C@H](c4ccc(O)c(O)c4)[C@H](O)C5)c(O)cc(O)c3C[C@H]2O)cc1O [Compound 2, Epicatechin–methylene–epicatechin] | 1.46 (0.01) | 0.16 | 3.45 (0.10) mM | 2180 | 2.80 (0.13) |  | 2.05 |  |  |  |  |  |  |  |  |
| Oc1ccc(C(c2c(O)cc(O)c3c2O[C@H](c2ccc(O)c(O)c2)[C@H](O)C3)c2c(O)cc(O)c3c2O[C@H](c2ccc(O)c(O)c2)[C@H](O)C3)cc1O [Compound 8, Epicatechin–catecholmethine–epicatechin] | 0.34 (0.00) | -0.47 | 2.61 (0.06) mM | 1500 | 2.30 (0.08) | 0.917 to 1.4 | 1.4 |  |  |  |  |  |  |  |  |
| Oc1cc(O)c2c(c1)O[C@H](c1ccc(O)c(O)c1)[C@H](O)C2 [Compound 16, epicatechin, reference compound] |  |  |  |  |  |  |  |  | majority of the starting materials remained | 15 |  |  |  |  |  |
| Oc1ccc([C@H]2Oc3c(Cc4c(O)cc(O)c5c4O[C@H](c4ccc(O)c(O)c4)[C@@H](O)C5)c(O)cc(O)c3C[C@@H]2O)cc1O [Compound 1] | 5.00 (0.05) | 0.7 |  |  |  |  | 3.45 |  |  |  |  |  |  |  |  |
| O=C(O)C(c1c(O)cc(O)c2c1O[C@H](c1ccc(O)c(O)c1)[C@H](O)C2)c1c(O)cc(O)c2c1O[C@H](c1ccc(O)c(O)c1)[C@H](O)C2 [Compound 4, Epicatechin–carboxymethine–epicatechin] | 0.02 (0.00) | -1.78 | 3.30 (0.08) mM | 2030 | 2.64 (0.11) |  | 7 |  |  |  |  |  |  |  |  |
| O=C(O)C(c1c(O)cc(O)c2c1O[C@H](c1ccc(O)c(O)c1)[C@@H](O)C2)c1c(O)cc(O)c2c1O[C@H](c1ccc(O)c(O)c1)[C@@H](O)C2 [Compound 3] | 0.04 (0.00) | -1.37 | 3.34 (0.09) mM | 2030 | 2.57 (0.10) |  | 6.27 |  |  |  |  |  |  |  |  |
| Oc1ccc([C@H]2Oc3c(c(O)cc(O)c3C(c3ccco3)c3c(O)cc(O)c4c3O[C@H](c3ccc(O)c(O)c3)[C@H](O)C4)C[C@H]2O)cc1O [Compound 6, Epicatechin–furanmethine–epicatechin] | 2.08 (0.00) | 0.32 | 3.32 (0.09) mM | 1830 | 2.15 (0.08) |  | 5.82 |  |  |  |  |  |  |  |  |
| Oc1ccc([C@H]2Oc3c(c(O)cc(O)c3C(c3cc(O)c(O)c(O)c3)c3c(O)cc(O)c4c3O[C@H](c3ccc(O)c(O)c3)[C@H](O)C4)C[C@H]2O)cc1O [Compound 10] |  |  | 2.41 (0.05) mM | 1440 | 2.48 (0.08) |  | < 0.25 |  |  |  |  |  | completely degraded already at the first time point | -1.18 | 0.07 (0.00) |
| Oc1ccc([C@H]2Oc3c(c(O)cc(O)c3C(c3cc(O)c(O)c(O)c3)c3c(O)cc(O)c4c3O[C@H](c3ccc(O)c(O)c3)[C@@H](O)C4)C[C@@H]2O)cc1O [Compound 9] |  |  | 2.61 (0.06) mM | 1400 | 2.04 (0.06) |  | < 0.25 |  |  |  |  |  | completely degraded already at the first time point | -0.85 | 0.14 (0.01) |
